Assay results: US20050148616A1, “Inhibitor of TNF-alpha and IL-1beta production” (priority 2003, published 2005)
Where a name gives a salt, the structure may show the parent alone.

What was measured:
TNF-α = assay: LPS-induced TNF-α production in human normal PBMCs (ELISA); assay type: cell-based
Experimental: (§1) PBMCs were isolated from fresh blood using a Ficoll-Paque Plus reagent (Amersham Bioscience) according to the protocol recommended by the manufacturer. The cells were suspended in a RPMI 1640 medium containing 10% FBS at a concentration of 1×10^5 cells/ml and seeded in a 96-well plate (1×10^4 cells total in each well). Each reaction was carried out in three wells.
(§2) 10 μl of pseudolycorine hydrochloride in DMSO was added to wells to obtain the final concentrations at 0.1, 0.3, 1, 3, 10, 30, and 100 μg/ml. In a positive control, dexamethason (DEX), an anti-inflammatory agent, instead of pseudolycorine hydrochloride, was added (final concentration 10 μM). In a negative control, 10 μl of the medium, instead of pseudolycorine hydrochloride, was added. The plate was placed in a 5% CO2 incubator at 37° C. for 15 minutes. After 10 μl aliquots of 100 μg/ml of LPS were added to all wells except for the negative control, the plate was placed in a 5% CO2 incubator at 37° C. overnight.
(§3) The plate was spun at 1000 rpm for 15 minutes and the supernatants were collected. The concentrations of TNF-α and IL-1β were measured by the TNF-α ELISA (Enzyme Linked Immunosorbent Assay) Kit and IL-1β ELISA Kit (Jingmei Bioengineer Technology). The inhibition ratios of TNF-α and IL-1β were calculated as follows: TNF-α Inhibition Ratio (%)=[TNF-α]control−[TNF-α]PHCl/[TNF-α]control×100% IL-1β Inhibition Ratio (%)=[IL-1β]control−[IL-1β]PHCl/[IL-1β]control×100% where [TNF-α]PHCl is the concentration of TNF-α in PBMCs treated with pseudolycorine hydrochloride and LPS, [TNF-α]control is the concentration of TNF-α in PBMCs treated with LPS and the medium, [IL-1β]PHCl is the concentration of IL-1β in PBMCs treated with pseudolycorine hydrochloride and LPS, and [IL-1β]control is the concentration of IL-1β in PBMCs treated with LPS and the medium.

IL-1β = assay: LPS-induced IL-1β production in human normal PBMCs (ELISA); assay type: cell-based
Experimental: as §1, §2, §3

[1] = compared with dexamethason (DEX) at 10 μM, LPS-stimulated human PBMCs

## COc1cc2c(cc1O)[C@@H]1[C@H](O)[C@@H](O)C=C3CCN(C2)[C@H]31 [pseudolycorine hydrochloride]
TNF-α; 0.1-100 μg/ml, FIG. 3
  inhibition of expression of TNF-α, concentration dependence: concentration-dependent manner
TNF-α; LPS-stimulated human PBMCs, overnight, ELISA of supernatant, FIG. 1
  concentration at which expression of TNF-α was inhibited: ≥ 0.3 µg/mL
TNF-α; [1]
  concentration at which expression of TNF-α was inhibited more effectively than DEX: ≥ 3 µg/mL
IL-1β; 0.1-100 μg/ml, FIG. 4
  inhibition of expression of IL-1β, concentration dependence: concentration-dependent manner
IL-1β; LPS-stimulated human PBMCs, overnight, ELISA of supernatant, FIG. 2
  concentration at which expression of IL-1β was inhibited: ≥ 1 µg/mL
IL-1β; [1]
  concentration at which expression of IL-1β was inhibited more effectively than DEX: ≥ 10 µg/mL
